Test system: interleukin (IL)-6
Experiment: Human immune cell line THP-1 in vitro assay: IL-6 in supernatant of LPS-treated differentiated THP1-XBlue cells (ELISA)
Type: cell-based
Settings: differentiated THP1-XBlue cells co-treated with E. coli LPS and composition, 24 hours; percentage to LPS-treated cells = 100%; three repeats
Protocol: Human Immune Cell Line THP-1 In Vitro Assay The following procedure was used to determine the anti-inflammation efficacy: THP1-XBlue™ (Cat No. thpx-sp, InvivoGen, San Diego, CA) cells were cultured as suspension in RPMI 1640 medium supplemented with 10% fetal bovine serum (FBS), penicillin (10 U/mL)-streptomycin (10 μg/mL) (Cat No. 15140122, Invitrogen, Carlsbad, CA). Cells were differentiated in 24-well plates at the density of 5×10^5 cells/well with 100 nM phorbol-12-myristate-13-acetate for 72 hours. Cells were then co-treated with pure E. coli lipopolysaccharides (LPS, Cat No. L2630, Sigma-Aldrich) and various compositions in Table 1. […] Expression of IL-6 was calculated as the percentage to LPS-treated cells which was designated as 100%. P value was analysed by Student's t-test comparing combination groups and individual compound groups (expression of IL-6, three repeats for each group).

CCCCCCC(O)CCCCCCCCCCC(=O)O (stereo not shown) [B, 12-hydroxystearic acid]
Expression of IL-6 (%): 84.4%
